Laboratory results taken from ChEMBL document CHEMBL1201862, “PubChem BioAssay data set” (2004).
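Five compound concentrations were applied to cells in 96-well plates for 48 hours; endpoints were derived by simple linear interpolation of the resulting dose-response curve. Here, GI50 denotes the concentration required for 50% inhibition of growth.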 Calls of active or inactive are those of the source. No stated cut-off is given here; in the data, active = GI50 up to about 1.1 µM and inactive = higher.

Experiments:
Experiment in all cases: NCI anticancer screen, dose series, 48 h
HOP-62 = system: HOP-62
NCI-H522 = system: NCI-H522
HT-29 = system: HT-29
UO-31 = system: UO-31
SN12C = system: SN12C
TK-10 = system: TK-10
U-251 = system: U-251
RXF 393 = system: RXF 393
ACHN = system: ACHN
SNB-19 = system: SNB-19
MDA-N = system: MDA-N
UACC-62 = system: UACC-62
NCI-H23 = system: NCI-H23
NCI-H226 = system: NCI-H226
SF-295 = system: SF-295
SK-MEL-2 = system: SK-MEL-2
SK-MEL-28 = system: SK-MEL-28
MDA-MB-435 = system: MDA-MB-435
HCC 2998 = system: HCC 2998
SF-539 = system: SF-539

SMILES | GI50 (HOP-62) | GI50 (NCI-H522) | GI50 (HT-29) | GI50 (UO-31) | GI50 (SN12C) | GI50 (TK-10) | GI50 (U-251) | GI50 (RXF 393) | GI50 (ACHN) | GI50 (SNB-19) | GI50 (MDA-N) | GI50 (UACC-62) | GI50 (NCI-H23) | GI50 (NCI-H226) | GI50 (SF-295) | GI50 (SK-MEL-2) | GI50 (SK-MEL-28) | GI50 (MDA-MB-435) | GI50 (HCC 2998) | GI50 (SF-539)
CCC1c2[nH]c3ccccc3c2C[C@H]2C(=O)NC(CCCCNC(=O)OC(C)(C)C)C(=O)N12 (some centres not stated) | 35.4 µM (inactive) | 20.7 µM (inactive) | 30.5 µM (inactive) | 34.6 µM (inactive) | 27.5 µM (inactive) | 33.6 µM (inactive) | 38.5 µM (inactive) | 30.5 µM (inactive) | 35.9 µM (inactive) | 44.2 µM (inactive) | 20.7 µM (inactive) | 20.5 µM (inactive) | 25.9 µM (inactive) | > 100 µM (inactive) | 22.9 µM (inactive) | 26.6 µM (inactive) | 41.1 µM (inactive) | 20.5 µM (inactive) |  | 
O=C(CN(C(=O)OC12CC3CC(CC(C3)C1)C2)C(=O)OC12CC3CC(CC(C3)C1)C2)Oc1ccc([N+](=O)[O-])cc1 | > 100 µM (inactive) | 59 µM (inactive) | > 100 µM (inactive) | > 100 µM (inactive) | 86.3 µM (inactive) | 52.4 µM (inactive) | 69.3 µM (inactive) | 42 µM (inactive) | > 100 µM (inactive) | > 100 µM (inactive) | > 100 µM (inactive) | > 100 µM (inactive) | 93.8 µM (inactive) | > 100 µM (inactive) | > 100 µM (inactive) |  | > 100 µM (inactive) | 45.3 µM (inactive) | > 100 µM (inactive) | > 100 µM (inactive)
Oc1c(Br)cc(CN(Cc2cc(Br)c(O)c(Br)c2)C2CCCCC2)cc1Br | > 100 µM (inactive) | > 100 µM (inactive) | > 100 µM (inactive) | > 100 µM (inactive) | > 100 µM (inactive) | > 100 µM (inactive) | > 100 µM (inactive) | > 100 µM (inactive) | > 100 µM (inactive) | > 100 µM (inactive) | > 100 µM (inactive) | > 100 µM (inactive) | > 100 µM (inactive) | > 100 µM (inactive) | > 100 µM (inactive) | > 100 µM (inactive) | > 100 µM (inactive) | > 100 µM (inactive) |  | 
O=C(c1ccc(Cl)cc1)N(C(=S)OCc1ccccn1)c1ccccc1 | 16.6 µM (inactive) |  | 55 µM (inactive) | 31 µM (inactive) | 51.6 µM (inactive) | 88.1 µM (inactive) | 53.6 µM (inactive) | 23.5 µM (inactive) | 70.6 µM (inactive) | > 100 µM (inactive) | > 100 µM (inactive) | > 100 µM (inactive) | 67.6 µM (inactive) | 33.7 µM (inactive) | 76.6 µM (inactive) | > 100 µM (inactive) | > 100 µM (inactive) | > 100 µM (inactive) |  | 33 µM (inactive)
CC1(C)CC2(C)CC1CC2O (configuration not stated) | > 100 µM (inactive) |  | > 100 µM (inactive) | > 100 µM (inactive) | > 100 µM (inactive) | > 100 µM (inactive) | > 100 µM (inactive) | > 100 µM (inactive) |  | > 100 µM (inactive) | > 100 µM (inactive) | > 100 µM (inactive) | > 100 µM (inactive) | > 100 µM (inactive) | > 100 µM (inactive) |  | > 100 µM (inactive) | > 100 µM (inactive) | > 100 µM (inactive) | > 100 µM (inactive)
O=C1CCc2ccccc2O1 [DIHYDROCOUMARIN] | > 100 µM (inactive) | > 100 µM (inactive) | > 100 µM (inactive) | > 100 µM (inactive) | > 100 µM (inactive) | > 100 µM (inactive) | > 100 µM (inactive) | > 100 µM (inactive) | > 100 µM (inactive) | > 100 µM (inactive) | 53.1 µM (inactive) | > 100 µM (inactive) | > 100 µM (inactive) | > 100 µM (inactive) | > 100 µM (inactive) | > 100 µM (inactive) | > 100 µM (inactive) | > 100 µM (inactive) | > 100 µM (inactive) | 
CC1(C)N=c2c(ncn2CCO)=C(C(N)=O)N1 | > 100 µM (inactive) | > 100 µM (inactive) | > 100 µM (inactive) |  | > 100 µM (inactive) | > 100 µM (inactive) | > 100 µM (inactive) | > 100 µM (inactive) | > 100 µM (inactive) | > 100 µM (inactive) | > 100 µM (inactive) | > 100 µM (inactive) | > 100 µM (inactive) | > 100 µM (inactive) | > 100 µM (inactive) |  | > 100 µM (inactive) | > 100 µM (inactive) | > 100 µM (inactive) | > 100 µM (inactive)
CCCN(CCC)C(=S)N/N=C/c1cccc(C)n1 | 0.195 µM (active) | 0.0194 µM (active) | < 0.01 µM (active) | 0.177 µM (active) | 0.122 µM (active) | 0.142 µM (active) | < 0.01 µM (active) | 0.151 µM (active) | 0.177 µM (active) | 0.533 µM (active) | 0.621 µM (active) | 0.303 µM (active) | 0.275 µM (active) | 0.129 µM (active) | 0.258 µM (active) | 0.594 µM (active) | 0.778 µM (active) | 0.521 µM (active) |  | 0.214 µM (active)
C=CC/N=C(\S)Nc1sc2c(c1C(=O)OCC)CC(C)CC2 (configuration not stated) | 23.1 µM (inactive) | 20.6 µM (inactive) | 21.5 µM (inactive) | 23.7 µM (inactive) | 29.9 µM (inactive) | 26.3 µM (inactive) | 32.6 µM (inactive) | 26.5 µM (inactive) | 22.9 µM (inactive) | 26.3 µM (inactive) | 30.5 µM (inactive) | 20.6 µM (inactive) | 32.7 µM (inactive) | 21.6 µM (inactive) | 21.1 µM (inactive) | 21.2 µM (inactive) | 33.1 µM (inactive) | 32 µM (inactive) | 18.5 µM (inactive) | 
C=O.NNCCc1n[nH]c(=O)n1N | > 100 µM (inactive) | > 100 µM (inactive) | > 100 µM (inactive) | > 100 µM (inactive) | > 100 µM (inactive) |  | > 100 µM (inactive) | > 100 µM (inactive) | > 100 µM (inactive) | > 100 µM (inactive) | > 100 µM (inactive) | > 100 µM (inactive) | > 100 µM (inactive) | > 100 µM (inactive) | > 100 µM (inactive) |  | > 100 µM (inactive) | > 100 µM (inactive) | > 100 µM (inactive) | > 100 µM (inactive)
CC(=O)N1C=Cc2c(c(C)c3c([nH]c4ccccc43)c2C)C1 | 3.02 µM (inactive) | 10.4 µM (inactive) | 4.58 µM (inactive) |  | 3.8 µM (inactive) | 10.8 µM (inactive) | 4.89 µM (inactive) | 16.3 µM (inactive) | 1.09 µM (active) | 10.2 µM (inactive) | 8.75 µM (inactive) |  | 5.92 µM (inactive) | 10.3 µM (inactive) | 8.22 µM (inactive) | 12.3 µM (inactive) | 15.3 µM (inactive) | 13 µM (inactive) |  | 5.27 µM (inactive)
Nc1ccc(-c2nc3ccccc3s2)cc1C(F)(F)F | 15.4 µM (inactive) | 16.8 µM (inactive) | 15.5 µM (inactive) | 14.7 µM (inactive) | 13.6 µM (inactive) | 13.1 µM (inactive) | 15 µM (inactive) | 9.08 µM (inactive) | 15.2 µM (inactive) | 17.4 µM (inactive) | 13.6 µM (inactive) | 16.9 µM (inactive) | 13.5 µM (inactive) |  | 17.4 µM (inactive) | 17.2 µM (inactive) | 17.3 µM (inactive) | 16.5 µM (inactive) |  | 18.7 µM (inactive)
CC(C)C(Br)C(=O)NCC(=O)O (configuration not stated) | > 100 µM (inactive) | > 100 µM (inactive) | > 100 µM (inactive) | > 100 µM (inactive) | > 100 µM (inactive) | > 100 µM (inactive) | > 100 µM (inactive) | > 100 µM (inactive) | > 100 µM (inactive) | > 100 µM (inactive) | > 100 µM (inactive) | > 100 µM (inactive) | > 100 µM (inactive) | > 100 µM (inactive) | > 100 µM (inactive) | > 100 µM (inactive) | > 100 µM (inactive) | > 100 µM (inactive) |  | > 100 µM (inactive)
CC(=O)c1ccc2c(c1)CC1(C2)Cc2cc3c(c(C(=O)O)c2C1)CCC3 (configuration not stated) | > 100 µM (inactive) | 79.6 µM (inactive) | > 100 µM (inactive) | 40 µM (inactive) | > 100 µM (inactive) | > 100 µM (inactive) | 55.8 µM (inactive) | > 100 µM (inactive) | 68.1 µM (inactive) |  | > 100 µM (inactive) | 72.1 µM (inactive) | > 100 µM (inactive) | > 100 µM (inactive) | > 100 µM (inactive) |  | > 100 µM (inactive) | > 100 µM (inactive) | > 100 µM (inactive) | > 100 µM (inactive)
CC1CC(C)C(O)C(C2CC(CC(=O)NC3CCCCC3)CC(=O)O2)C1 (configuration not stated) | > 100 µM (inactive) | > 100 µM (inactive) | > 100 µM (inactive) |  | 87.9 µM (inactive) | > 100 µM (inactive) | > 100 µM (inactive) | > 100 µM (inactive) | > 100 µM (inactive) | > 100 µM (inactive) | > 100 µM (inactive) |  | > 100 µM (inactive) | > 100 µM (inactive) | > 100 µM (inactive) |  | > 100 µM (inactive) | > 100 µM (inactive) | > 100 µM (inactive) | > 100 µM (inactive)
